From patent US20040198763A1, “Method of treating dry eye with a macrolide compound” (Sucampo AG, priority 2003, published 2004) come the findings set out here.

The subject of experiment [1] is Human patients diagnosed as having kerratoconjunctivitis sicca (KCS; dry eye). The experiment in a line: Ocular discomfort score in dry eye patients treated with eye drops. The experiment is classed as in vivo. Particulars: day 42, patients with Schirmer score <5 mm/5 min and SPK score at least 3. Here is the method: Human patients diagnosed as having kerratoconjunctivitis sicca (KCS; dry eye) were treated with eye drops containing either various concentrations of tacrolimus, a macrolide compound according to the invention or placebo. Eye drops were administered 3 times per day for six weeks (42 days). Patients were evaluated using the Schirmer test; corneal fluorescein staining, conjunctival lissamine green staining and an ocular discomfort score. Patients were also evaluated based on ratings of their ocular discomfort, which was a composite of scores for burning/stinging, irritation, photophobia, dry eye sensation and foreign body sensation. Scoring was on a five-point scale, as follows: [table]

For experiment [2] the test system is unchanged. Briefly: Conjunctival lissamine green staining in dry eye patients treated with eye drops. The experiment is classed as in vivo. The following applies: day 42, patients with Schirmer score <5 mm/5 min and SPK score at least 3. The protocol:
Human patients diagnosed as having kerratoconjunctivitis sicca (KCS; dry eye) were treated with eye drops containing either various concentrations of tacrolimus, a macrolide compound according to the invention or placebo. Eye drops were administered 3 times per day for six weeks (42 days). Patients were evaluated using the Schirmer test; corneal fluorescein staining, conjunctival lissamine green staining and an ocular discomfort score. Conjunctival lissamine green staining was performed by instilling a drop of lissamine green ophthalmic solution into the cul-de-sac of the eye. Following instillation, punctate staining was evaluated for the nasal and temporal interpalpebral conjunctiva using the following scoring system: [table]

[3] abbreviates: 0.01% eye drops 3 times per day.
Setting [4] is: 0.06% eye drops 3 times per day.

Regarding `C=CCC1/C=C(\C)CC(C)CC(OC)C2OC(O)(C(=O)C(=O)N3CCCCC3C(=O)OC(/C(C)=C/C3CCC(O)C(OC)C3)C(C)C(O)CC1=O)C(C)CC2OC` (stereo not shown) [macrolide compound], the “mean ocular discomfort decrease from baseline” value is 6.0±4.43 units in experiment [1] (setting [3]) and 6.8±3.01 units in experiment [1] (setting [4]). Besides, the “lissamine green staining decrease from baseline” value worked out at 1.8±1.47 units in experiment [2] (setting [3]) and 3.9±2.03 units in experiment [2] (setting [4]).
